Data on one compound can be found in article PMC10547880, “Synthesis and biological evaluation of novel 1,2,3-triazole hybrids of cabotegravir: identification of potent antitumor activity against lung cancer” (Frontiers in Pharmacology, 2023).

Structures are written as SMILES. “Also recorded” adds a separate entry of the source.

What all share (format): cell-based, Human
Assay [1] has as its system H1299 cells. The assay can be described thus: Western blot of protein expression, H1299. The conditions noted are these: H1299, 2, 4, 8 μM, 72 h. Here is the method: Western blot was used to analyze protein expressions. Cells were cultured in 12-well plates and treated with different concentrations (0, 2, 4, 8 μM) of compounds for 72 h. Cell proteins were extracted using RIPA buffer with protease/phosphatase inhibitor cocktail (CST). 10%–15% sodium dodecyl sulfate polyacrylamide gel electrophoresis was used to separate proteins and nitrocellulose membranes (Millipore) was used to collected proteins. Antibodies used in western bolt were LC3 (3868s, CST), caspase 3 (9662s, CST), cyclin D (2922s, CST), cyclin E (20808s, CST), β-Catenin (9562s, CST), γH2AX (9718s, CST), PARP (46D11, CST), and β-actin (4967s, CST). Values were expressed as Mean ± SEM, p < 0.05 was considered statistically significant. Data were performed using Graph Prim 7.0.
Western blot analysis was performed to assess the protein expressions involved in cell growth and cell death processes. H460 and H1299 cells were treated with different concentrations of compound 5i, and whole cell proteins were collected for analysis. […] Autophagy has both tumor suppression and growth promotion effects in cancers, depending on the cellular context and cancer stage. On the one hand, autophagy inhibits cancer development via eliminating dysfunctional proteins and damaged mitochondria. On the other hand, autophagy can promote tumor growth by providing recycled metabolites to support cancer cell survival and growth ([Wang et al., 2023]). […] But in H1299 cells, compound 5i exerted its anticancer ability by suppressing cell division and proliferation.
Background: In western blotting, separated proteins are transferred to a membrane and probed.

Assay [2] concerns H1299 cells. The assay can be described thus: Live/dead cell staining (Calcein-AM/PI), H1299. Conditions: H1299, 5, 10, 20 μM, 24 h. Here is the method: Cells with a density of 5 × 10^3 cells per well were seeded in a 96-well plate. After overnight incubation, cells were treated with different concentrations (0, 5 μM, 10 μM, 20 μM) of compounds for 24 h. The LIVE/DEAD Assay Kit was used to dye cells, and cells were observed and photographed under a fluorescent microscope. Live and Dead cell numbers were counted and the ratio of dead to living cells were calculated. Values were expressed as Mean ± SEM, p < 0.05 was considered statistically significant. Data were performed using Graph Prim 7.0.
(§1) To assess the anti-proliferative effects of compound 5i, live/dead cell staining was performed using Calcein Acetoxymethyl Ester (Calcein-AM) and Propidium Iodide (PI) dyes ([Xie et al., 2023]). Calcein-AM highlights live cells through green fluorescence emission, while PI identifies dead cells with damaged membrane integrity, producing red fluorescence. H460 and H1299 cells were treated with different concentrations (0, 5, 10 and 20 μM) of compound 5i for 24 h. After 24 h treatment, cells were stained with Calcein-AM and PI, diluted in cultured medium, and incubated for an hour in dark. Then the fluorescence was detected and photographed using a fluorescent microscope. […] In addition, we also performed plate clone formation assay ([Xu et al., 2018]) to further investigate the anti-proliferation ability of compound 5i. […]

For assay [3], the system named is H1299 cells. Kind of assay: Apoptosis assay, Annexin V-FITC/PI flow cytometry, H1299. Conditions: H1299, 72 h. Here is the method: Cells with a density of 3 × 10^5 cells per well were seeded in 6-well plates. After overnight adhesion, cells were treated with different concentrations of compounds for 72 h. Cells were harvested and stained with Annexin V-FITC and propidium iodide. Apoptotic ratio was quantified using the flow cytometry (BD Biosciences) and analyzed using the FlowJo software v10. Values were expressed as Mean ± SD, p < 0.05 was considered statistically significant. Data were performed using Graph Prim 7.0.
Apoptosis is a programmed-controlled process of cell self-destruction, and increased cell apoptosis can lead to cell death ([Wang et al., 2023]). To explore the preliminary molecular mechanisms of the synthesized compounds action, the apoptotic activity of compound 5i was evaluated by comparing the percentage of apoptotic cells with untreated cells using flow cytometry after staining with Annexin V-FITC and PI ([Chen et al., 2022a]). This assay facilitates the detection of necrotic cells (Q1, AV-/PI+), late apoptotic cells (Q2, AV+/PI+), early apoptotic cells (Q3, AV+/PI-), and live cells (Q4, AV-/PI-). H460 and H1299 cells were treated with different doses of compound 5i for 72h, and cells were collected, stained, and analyzed. The proportion of early and late apoptotic cells was added and their ratio relative to the total cells was calculated.
For orientation: Flow cytometry measures light scatter and fluorescence of single cells or particles in a stream.

For assay [4], the system named is H460 cells. Kind of assay: Plate clone formation assay, H460. Conditions: H460, 2-32 μM, particularly 16 μM and 32 μM. How it is done:
Cells with the density of 500 cells per well were seeded in a 6-well plate. Different concentrations (0, 2 μM, 4 μM, 8 μM, 16 μM and 32 μM) of compounds were added to cells and maintained for a 72- hour duration. And cells were cultured until the monoclonal appeared. Afterward, cells were fixed with 4% paraformaldehyde and stained by Giemsa dye. The plate clone numbers were photographed and counted using a microscope. Values were expressed as Mean ± SEM, p < 0.05 was considered statistically significant. Data were performed using Graph Prim 7.0.
as §1

With `COc1c2n(cc(C(=O)Nc3cccc(-c4cn(-c5ccccc5OC(F)(F)F)nn4)c3)c1=O)CC1OCC(C)N1C2=O` (stereo not shown) [Compound 5i], in assay [1], the “Cyclin D level” value is recorded as “decrease”, the “Cyclin E level” value is given as “decrease”, the LC3 expression entry is given as “no significant differences” and the PARP expression result is recorded as “remained unaffected”. Besides, in assay [1], the “caspase3 expression” value is reported as “no significant differences”, the β-catenin expression result is given as “remained unaltered” and the γ-H2AX expression entry was “pronounced elevation; also recorded: increased expression”. For the same compound, the “live and dead cell numbers” value in assay [2] was “decrease in live cell numbers alongside a substantial rise in dead cells”. Further, the “apoptotic cells (early + late)” value in assay [3] was “no significant change or even a decrease”. In addition, the “number of cell clones” value in assay [4] is given as “decreased”.
